Reference: PMC9241695, “Selective Metal Chelation by a Thiosemicarbazone Derivative Interferes with Mitochondrial Respiration and Ribosome Biogenesis in Candida albicans” (Microbiology Spectrum, 2022)

Key:
[1] = test system: CAT; assay: Catalase (CAT) activity in treated cells; type: cell-based; details: 0.5 μg/mL or above, 6 h
Protocol: Determination of SOD activity. SOD activity was measured using the Superoxide Dismutase Activity Assay Kit (Njjcbio, Nanjing, China) following the manufacturer's instructions. An overnight culture of C. albicans SC5314 was adjusted to 1 × 10^7 cells/mL with RPMI1640 medium and treated with 19ak at a final concentration of 0, 0.125, 0.25, 0.5, or 1 μg/mL for 6 h. After collection by centrifugation, the cells were broken by glass beads in extraction buffer and centrifuged at 4°C. The absorbance of the supernatant of each sample was measured with a microplate reader at450 nm.
Determination of catalase (CAT) activity. CAT activity was measured by using a Catalase Assay Kit (Solarbio, Beijing, China) following the manufacturer's instructions. An overnight culture of C. albicans SC5314 was adjusted to 1 × 10^6 cells/mL with RPMI1640 medium and treated as described above for SOD activity.
The decomposition of H2O2 is directly accompanied by a decrease in absorbance at 240 nm, and the difference in absorbance per unit time (ΔA240) is a measure of […]
Quantitative real-time polymerase chain reaction (qPCR) analysis. C. albicans SC5314 cells (1 × 10^6 cells/mL) were incubated with or without 19ak (0.5,2 μg/mL) in RPMI1640 medium for 6 h. Total RNA was extracted using the hot phenol method, and the RNA quality was analyzed using a spectrophotometer (Eppendorf, Hamburg, Germany). […]

[2] = test system: C. albicans SC5314; assay: Respiratory activity by CTC staining; type: cell-based, Candida albicans; details: 6 h, 1 mM CTC; 19ak 0.125-1 μg/mL, TPEN 0.05-0.4 μg/mL
Protocol: h (for C. albicans, C. krusei, C. tropicalis, C. parapsilosis) or 48 h (for C. neoformans, A. fumigatus). The MIC was determined based on visible growth inhibition compared with the control. All experiments were performed in duplicate.
Cytotoxicity testing. The cell lines HK2 and 16HBE were used to evaluate the cytotoxicity of 19ak, 19k and 19t. Cells in DMEM containing 10% fetal bovine serum (Gibco) were seeded in 96-well tissue culture plates at a cell density of 1 × 10^4 cells/mL and incubated for 24 h to allow adhesion. The supernatant was then replaced with fresh DMEM containing various concentrations of 19ak, 19k and 19t. […]
The effects of the compounds on cell proliferation were detected by measuring the absorbance at 570 nm in a microplate reader (BioTek, VT, USA). […]
the fluorescent complex […] (CTF) is commonly used to indicate the intensity of microbial respiration. C. albicans SC5314 treated with 19ak was stained with 1 mM CTC for 30 min, followed by flow cytometry analysis of respiratory activity based on fluorescence intensity. Images of cells were obtained using a fluorescence microscope (IX71, Olympus, Tokyo, Japan). […] After an additional 2 h of incubation, OD450 in each well was detected with a microplate reader. […]
Mitochondrial complex activity was expressed as nmol/min/mg protein. […]

[3] = test system: C. albicans SC5314 cells; assay: Intracellular free iron levels using FeRhoNox-1; type: cell-based, Candida albicans; details: 0.5 μg/mL, 6 h, compared with untreated cells
Protocol: FeRhoNox-1 is a commercially available fluorescent probe that specifically binds Fe^2+ and is used to measure intracellular Fe^2 + content. C. albicans SC5314 cells cultured overnight were diluted to roughly 1 × 10^6 cells/mL in RPMI 1640 medium and challenged with various doses of 19ak for 6 h. Next, the cells were fixed with 4% paraformaldehyde for 1 h. After washing three times with PBS, the cells were stained with 5 μM FeRhoNox-1 for 30 min and analyzed by flow cytometry (Becton, Dickinson, CA, USA). Mammalian cells culture is according to the method described in Cytotoxicity testing which was described in Supplemental material in detail. After 12 h of treatment with different concentrations of 19ak, the supernatant was discarded and washed three times with PBS. Cells were collected after staining with FeRhoNox-1 for 30 min in the dark, and the fluorescence intensity of stained cells was analyzed by flow cytometry.

SMILES: C/C(=N\NC(=S)N(C)C)c1ccccn1 [Compound 19ak]
- CAT activity [1]: increased
- Mitochondrial respiratory activity (CTC fluorescence intensity) [2]: dose-dependently reduced
- Intracellular labile ferrous ions (FeRhoNox-1) [3]: obvious drop
